As a reminder, the IC50 is the concentration that inhibits the measured activity by half.

The text below walks through data of patent US20210292347A1, “DIHETEROCYCLIC TRIAZINONE NUCLEOSIDE ANALOGS AND THEIR USE FOR MEDICATION” (priority 2020, published 2021).

The subject of experiment [1] is human lung cancer cell line NCI-H460. Kind of experiment: cells. It counts as cell-based. To be noted: for IC50: Homo sapiens; for inhibitory effect on NCI-H460 cells (in words): lung cancer. The procedure: (§1) Cell lines: Human pancreatic cancer cell line Panc-1, human colorectal cancer cell line HT29, human lung cancer cell line NCI-H460 and human breast cancer cell line MCF7; the medium: s DMEM (Gibco BRL), containing 10% fetal calf serum (Gibco BRL) and 2 mM L-glutamine (Gibco BRL).
(§2) Test samples: example compounds 7, 15, 82, 89, 116 and 135. The samples were dissolved in dimethyl sulfoxide (DMSO, Sigma, United States) and medium was added to the final concentration of 0.5%. Cyclophosphamide ware as positive control (Aldrich, United States, purity>96%).
(§3) General Method: cells were digested with trypsin and dispersed into single cells in the medium containing penicillin (25 U/ml) and streptomycin (25 μg/mL). The cells were seeded in 96-well culture plates (Corning Incorporated), at 37° C., with 5% CO2 present for 24 hours. The culture medium was removed, […] test compounds were added, cultured for 48 hours. Culture medium was removed and […] (MTT, USA Sigma products) was added. The result was assayed by SK601-based microplate reader (Japan Seikagaku company's products), 570 nm/630 nm optical density (OD). Cell viability determined by the formula: (Experimental group OD/control OD)×100%; CTX and the positive control subjects treated in the same material simultaneously.

The test system of experiment [2] is human colorectal cancer cell line HT29. Kind of experiment: cells. It counts as cell-based. The conditions noted are these: for IC50: Homo sapiens; for anti-proliferative effect on HT29 (in words): colorectal cancer. The procedure:
as §1, §2, §3

Experiment [3] has as its system human breast cancer cell line MCF7. Kind of experiment: cells. It counts as cell-based. The procedure:
as §1, §2, §3

Experiment [4] concerns Human pancreatic cancer cell line Panc-1. Kind of experiment: cells. It counts as cell-based. To be noted: for IC50: Homo sapiens, read-out: IC50 and 95% confidence limit, anti-proliferative effect on Panc-1; for anti-proliferative effect on Panc-1 (in words): pancreatic cancer. The procedure: as §1, §2, §3
Another experiment deals with mice sarcoma S180. Kind of experiment: Growth inhibition of S180 sarcoma in mice. It counts as in vivo, Kunming healthy mice. To be noted: for in-vivo anti-tumor efficacy, statistical significance (in words): S180 sarcoma in mice, doses and routes of Table 3.
Setting [5] is: NCI-H460, MTT, 48 hours, unit inferred, read-out: IC50 and 95% confidence limits, NCI-H460 cells.
[6] abbreviates: NCI-H460, MTT, cultured for 48 hours, value (95% confidence limit), Table 2, read-out: IC50 Lung cancer NCI-H460.
[7] abbreviates: HT-29, MTT, 48 hours, read-out: IC50 and 95% confidence limit, anti-proliferative effect on HT29.
Where [8] appears, read: HT-29, MTT, cultured for 48 hours, value (95% confidence limit), Table 2, read-out: IC50 Colorectal cancer HT-29.
Where [9] appears, read: MCF7, MTT, 48 hours, unit inferred, read-out: IC50 with 95% confidence limits, MCF7 cells.
Setting [10] is: MCF7, MTT, cultured for 48 hours, value (95% confidence limit), Table 2, read-out: IC50 Breast cancer MCF7.
Where [11] appears, read: Mus musculus, S-180, mice, iv, read-out: Inhibition rate (%) S180 sarcoma.

Molecules are shown by their SMILES. Values after ≈ are worked out from the molar mass of the structure shown. “Also recorded” adds a separate entry of the source. Like-named read-outs stand apart in the source and are kept apart here. Where only a bound is given, the exact number is not on record here.

Turning to `Nc1nn(O)c2c(=O)n(C3OC(CO)C(O)C3O)nnc12` (centres unmarked) [Example 15, 7-amino-3-(3,4-dihydroxy-5-(hydroxymethyl)tetrahydrofuran-2-yl)-5-hydroxy-3H-pyrazolo[4,3-d][1,2,3]triazin-4(5H)-one], the IC50 in experiment [1] (setting [5]) turned out to be 22 µM; in experiment [1] (setting [6]) it was 22 µM; in experiment [2] (setting [7]) it was 3.92 µg/mL; in experiment [2] (setting [8]), 3.92 µM; in experiment [3] (setting [9]), 2.73 µM; in experiment [3] (setting [10]), 2.73 µM. Also, the IC50 in experiment [4] (PANC-1, MTT, 48 hours) stood at 2.68 µg/mL (≈ 8.93 µM). For the same compound, the “inhibitory effect on NCI-H460 cells (in words)” value in experiment [1] is on record as “more sensitive to NCI-H460 cells”. The “anti-proliferative effect on HT29 (in words)” value in experiment [2] is “close values to CTX; also recorded: higher inhibition activity”. Also, in experiment [4], the “anti-proliferative effect on Panc-1 (in words)” value is listed as “higher inhibition activity”. In addition, in the experiment on mice sarcoma S180 (setting [11]), the inhibition in vivo at 50 mg/kg was under 40%. In the experiment with mice sarcoma S180, the “in-vivo anti-tumor efficacy, statistical significance (in words)” value was “statistically significant”.

Consider `CCCc1nn(C(C(=O)O)P(=O)(OCC)OCC)c2c(=O)n(C3CCC(CO)O3)nnc12` (centres unmarked) [Example 82, 2-(diethoxyphosphoryl)-2-(3-(5-(hydroxymethyl)tetrahydrofuran-2-yl)-4-oxo-7-propyl-3H-pyrazolo[4,3-d][1,2,3]triazin-5(4H)-yl)acetic acid], for which the IC50 in experiment [1] (setting [5]) was 60.5 µM; in experiment [1] (setting [6]), 60.5 µM; in experiment [2] (setting [7]), 10.2 µg/mL; in experiment [2] (setting [8]), 13.1 µM; in experiment [3] (setting [9]) it was 34.3 µM; in experiment [3] (setting [10]), 34.3 µM. Further, in experiment [4] (PANC-1, MTT, 48 hours), the IC50 was 53 µg/mL (≈ 112 µM). Moreover, the “anti-proliferative effect on HT29 (in words)” value in experiment [2] was “relatively weak”. For the same compound, in the experiment with mice sarcoma S180 (Mus musculus, S-180, mice, iv, 15 mg/kg, read-out: Inhibition rate (%) S180 sarcoma), the inhibition in vivo at 15 mg/kg was under 20%.

For the compound `Nc1nn(O)c2c(=O)n(C3CSC(CO)O3)nnc12` (centres unmarked) [Example 89, 7-amino-5-hydroxy-3-(2-(hydroxymethyl)-1,3-oxathiolan-5-yl)-3H-pyrazolo[4,3-d][1,2,3]triazin-4(5H)-one], the IC50 came to 8.52 µM in experiment [1] (setting [5]); 8.52 µM in experiment [1] (setting [6]); 13.1 µg/mL in experiment [2] (setting [7]); 10.2 µM in experiment [2] (setting [8]); 67.5 µM in experiment [3] (setting [9]); 67.5 µM in experiment [3] (setting [10]). In addition, the 50% inhibitory concentration (IC50) in experiment [4] (PANC-1, MTT, 48 hours) was 10 µg/mL (≈ 35 µM). Further, in experiment [2], the “anti-proliferative effect on HT29 (in words)” value is “relatively weak”. In addition, the inhibition in vivo at 100 mg/kg with mice sarcoma S180 (Mus musculus, S-180, mice, ip, 100 mg/kg, read-out: Inhibition rate (%) S180 sarcoma) was under 40%. The “in-vivo anti-tumor efficacy, statistical significance (in words)” value in the experiment on mice sarcoma S180 was “statistically significant”.

Take `CCOC(=O)c1nn(O)c2c(=O)n(C3OC(COC(C(=O)O)P(NC(C)C)OCC#N)C(O)C3O)nnc12` (centres unmarked) [Example 116, 2-((cyanomethoxy)(isopropylamino)phosphino)-2-((5-(7-(ethoxycarbonyl)-5-hydroxy-4-oxo-4,5-dihydro-3H-pyrazolo[4,3-d][1,2,3]triazin-3-yl)-3,4-dihydroxytetrahydrofuran-2-yl)methoxy)acetic acid]: the IC50 in experiment [1] (NCI-H460, 48 h, read-out: IC50 Lung cancer NCI-H460) was found to be 4.62 µM; in experiment [1] (NCI-H460, 48 h, read-out: IC50 and 95% confidence limits, NCI-H460 cells), 4.62 µM; in experiment [2] (HT-29, 48 h, read-out: IC50 Colorectal cancer HT-29), 2.68 µM; in experiment [2] (HT-29, 48 h, read-out: IC50 and 95% confidence limit, anti-proliferative effect on HT29), 2.68 µg/mL; in experiment [3] (MCF7, 48 h, read-out: IC50 Breast cancer MCF7) it was 12.9 µM; in experiment [3] (MCF7, 48 h, read-out: IC50 with 95% confidence limits, MCF7 cells), 12.9 µM. For the same compound, the IC50 in experiment [4] (PANC-1, 48 h) came out at 2.19 µg/mL (≈ 3.91 µM). In experiment [1], the “inhibitory effect on NCI-H460 cells (in words)” value is “more sensitive to NCI-H460 cells”. The “anti-proliferative effect on HT29 (in words)” value in experiment [2] is listed as “the strongest; also recorded: higher inhibition activity”. Besides, in experiment [4], the “anti-proliferative effect on Panc-1 (in words)” value is “a strong anti-proliferative effect, better than CTX; also recorded: higher inhibition activity”. Besides, the inhibition in vivo at 50 mg/kg in the experiment on mice sarcoma S180 (setting [11]) is under 40%. Further, in the experiment with mice sarcoma S180, the “in-vivo anti-tumor efficacy, statistical significance (in words)” value is recorded as “statistically significant”.

For `CCCc1nn(C)c2c(=O)n(C3OC(COP(=O)(O)OP(=O)(O)OP(=O)(O)O)C(O)C3O)nnc12` (centres unmarked) [Example 135, (3,4-dihydroxy-5-(5-methyl-4-oxo-7-propyl-4,5-dihydro-3H-pyrazolo[4,3-d][1,2,3]triazin-3-yl)tetrahydrofuran-2-yl)methyl tetrahydrogen triphosphate], the IC50 in experiment [1] (setting [5]) was 14 µM; in experiment [1] (setting [6]), 14 µM; in experiment [2] (setting [7]) it was 18 µg/mL; in experiment [2] (setting [8]) it was 18 µM; in experiment [3] (setting [9]), 5.7 µM; in experiment [3] (setting [10]) it was 5.7 µM. Moreover, the half-maximal inhibitory concentration (IC50) in experiment [4] (PANC-1, MTT, 48 hours) came out at 53.5 µg/mL. In addition, the “anti-proliferative effect on HT29 (in words)” value in experiment [2] was “relatively weak”. Further, the inhibition in vivo at 25 mg/kg with mice sarcoma S180 (Mus musculus, S-180, mice, iv, 25 mg/kg, read-out: Inhibition rate (%) S180 sarcoma) is under 40%. In addition, in the experiment with mice sarcoma S180, the “in-vivo anti-tumor efficacy, statistical significance (in words)” value was “statistically significant”.
